Source: patent US4780462A, “Antihypertensive 1,5-benzothiazepine derivatives and compositions thereof” (Kotokuki Seiya Kau Co., Ltd., priority 1986, dated 1988)

What was measured:
Guinea-pig taenia caecum = experiment: Ca++-antagonistic activity (isolated guinea-pig taenia caecum); details: Cavia porcellus, 0.05 h; Ca++-induced contraction of taenia caecum, Ca++-free Krebs Ringer; pretreatment with compound 3 minutes before; read-out: PA2 value (converted)
Experimental: Ca^++ -Antagonistic activity. Experiments are carried out according to the method of M. Ferrari (Arch. Intern. Pharmacoadyn. 174, 223 (1968) Guinea-pig taenia caecum is isolated and suspended in a bath which is filled with Ca^++ -free Krebs Ringer solution for 30 minutes. In this condition, taenia caecum is contracted by elevating Ca^++ -ion concentration of Krebs Ringer and obtained a dose-response curve against Ca^++ -ion. Pretreatment with the compound of this invention before 3 minutes, and obtained a dose-response curve under the existence of the compound of this invention.
From these two dose-response curves, PA2 value is calculated and PA2 is expressed as index of activities. (Table 1)

[1] = test system: anesthetized normotensive rats; experiment: Antihypertensive activity on anesthetized normotensive rats; assay type: in vivo; details: dose which lowers the mean blood pressure by 15 mmHg, i.v. (femoral vein); urethane anesthetized normotensive male Wistar rats
Experimental: The antihypertensive activities of the compounds on anesthetized normotensive rats were tested according to the method of H. Sogabe.^(1) Male Wistar rats weighing 200-300 g were anesthetized with urethane (1.2 g/kg. i.v.). Blood pressure was measured by a transducer (Nihon Koden RT-5) connected the catheter inserted into the femoral artery. The test compounds in physiological saline (0.1 ml/100 g. B.W.) were injected via the femoral vein. The antihypertensive activity was assessed by comparing with MBP15 (dose which lowers the mean blood pressure by 15 mmHg, mg/kg i.v.).
(1) Hirobumi Sogabe "Jikken Kouketsuatsushou nyuumon" p227 (Eikoudo 1968).

[2] = Acute toxicity in mice per os; details: mouse, in vivo, po
From the text: The acute toxicity of the compounds of this invention in mice per os is as follows. (Table 4)

[3] = test system: isolated guinea-pig heart; experiment: Coronary artery dilating activity (Rangendorf method, isolated guinea-pig heart); details: coronary blood flow examined for 2 minutes
From the text: The coronary artery dilating activity of the compounds is estimated by Rangendorf method (Pfugers. Arch. Ges. Physiol. 62, 291 (1895)) using the isolated guinea-pig heart.

| SMILES | Kb (Guinea-pig taenia caecum) | Antihypertensive act. (M.B.P.15) [1] | maximum increased blood flow ([3]; 10 μg/heart) | maximum increased blood flow ([3]; 30 μg/heart) | also measured |
| --- | --- | --- | --- | --- | --- |
| COc1cccc(OC)c1OCCNCCC(=O)N1CCCSc2ccccc21 [Compound 1, 5-[3-(2-(2-,6-dimethoxyphenoxy)ethylamino)-propionyl]-2,3,4,5-tetrahydro-1,5-benzothiazepine·fumarate] | 813 nM |  |  |  |  |
| CC(C)c1cccc(C(C)C)c1OCCNCCC(=O)N1CCCSc2ccccc21 [Compound 3, 5-[3-(2-(2,6-diisopropylphenoxy)ethylamino)-propionyl]-2,3,4,5-tetrahydro-1,5-benzothiazepine·fumarate] |  | 1.35 µg |  |  | LD50 [2]: 1500 mg/kg |
| Cc1cccc(C)c1OCCNCCC(=O)N1CCCSc2ccccc21 [Compound 4, 5-[3-(2-(2,6-dimethylphenoxy)ethylamino)propionyl]-2,3,4,5-tetrahydro-1,5-benzothiazepine·fumarate] | 102 nM |  | 7.2 mL | 19.2 mL |  |
| O=C(CCNCCSc1ccc([N+](=O)[O-])cc1)N1CCCSc2ccccc21 [Compound 5, 5-[3-(2-(4-nitrophenylthio)ethylamino)propionyl]-2,3,4,5-tetrahydro-1,5-benzothiazepine·fumarate] | 97.7 nM | 2.0 µg |  |  |  |
| Nc1cccc(OCCNCCC(=O)N2CCCSc3ccccc32)c1 [Compound 6, 5-[3-(2-(3-aminophenoxy)ethylamino)propionyl]-2,3,4,5-tetrahydro-1,5-benzothiazepine·fumarate] |  |  | 4.6 mL | 6.0 mL |  |
| O=C(CCNCCOc1cccc([N+](=O)[O-])c1)N1CCCSc2ccccc21 [Compound 7, 5-[3-(2-(3-nitrophenoxy)ethylamino)propionyl]-2,3,4,5-tetrahydro-1,5-benzothiazepine·fumarate] | 245 nM | 4.2 µg |  |  |  |
| COc1ccc(OCCNCCC(=O)N2CCCSc3ccccc32)cc1 [Compound 8, 5-[3-(2-(4-methoxyphenoxy)ethylamino)propionyl]-2,3,4,5-tetrahydro-1,5-benzothiazepine·fumarate] | 603 nM |  |  |  |  |
| Cc1cccc(OCCNCCC(=O)N2CCCSc3ccccc32)c1 [Compound 11, 5-[3-(2-(3-methylphenoxy)ethylamino)propionyl]-2,3,4,5-tetrahydro-1,5-benzothiazepine·fumarate] |  | 34.7 µg |  | 16.5 mL | maximum increased blood flow ([3]; 3 μg/heart): 7.7 mL |
| Cc1cc(C)c(OCCNCCC(=O)N2CCCSc3ccccc32)c(C)c1 [Compound 12, 5-[3-(2-(2,4,6-trimethylphenoxy)ethylamino)propionyl]-2,3,4,5-tetrahydro-1,5-benzothiazepine·fumarate] | 55 nM |  | 11.3 mL | 18.3 mL |  |
| O=C(CCNCCOc1ccc(Cl)cc1Cl)N1CCCSc2ccccc21 [Compound 13, 5-[3-(2-(2,4-dichlorophenoxy)ethylamino)propionyl]-2,3,4,5-tetrahydro-1,5-benzothiazepine·fumarate] | 126 nM | 3.5 µg |  |  |  |
| Nc1ccccc1OCCNCCC(=O)N1CCCSc2ccccc21 [Compound 15, 5-[3-(2-(2-aminophenoxy)ethylamino)propionyl]-2,3,4,5-tetrahydro-1,5-benzothiazepine·fumarate] |  |  |  | 2.0 mL | LD50 [2]: 374 mg/kg |
| O=C(CCNCCOc1ccc([N+](=O)[O-])cc1)N1CCCSc2ccccc21 [Compound 16, 5-[3-(2-(4-nitrophenoxy)ethylamino)propionyl]-2,3,4,5-tetrahydro-1,5-benzothiazepine·fumarate] |  |  | 4.2 mL |  |  |
| Cc1cccc(C)c1SCCNCCC(=O)N1CCCSc2ccccc21 [Compound 17, 5-[3-(2-(2,6-dimethylphenylthio)ethylamino)propionyl]-2,3,4,5-tetrahydro-1,5-benzothiazepine·fumarate] |  | 9.3 µg |  |  |  |
